Measurements reported in patent publication US9371351B2, “Glycomimetics as Pseudomonas aeruginosa lectin inhibitors” (priority 2012, dated 2016).

Key:
LecB [1] = molecular target: T1, LecB (Pseudomonas aeruginosa, UniProt Q9HYN5); experiment: biochemical; format: binding; settings: for rIC50 (MeMan): IC50 relative to Me-α-Man, below 1 = stronger ligand than Me-α-Man
Protocol: A LecB competition assay was carried out by a novel fluorescence polarization assay developed by the inventors of the present invention. To date, an enzyme-linked lectin assay (ELLA) is widely used for the evaluation in screening of the binding potential of ligands to LecB. This allows the evaluation of molecules over a broad affinity range, including monovalent ligands and oligomeric dendrimers thereof. ELLAs have been developed based on enzyme-linked immunosorbent assays (ELISA). […] Furthermore, the current ELLA protocol involves either a surface immobilization of LecB or a covalent modification of the lectin, which could interfere with ligand binding. Consequently, hits from the ELLA are usually further characterized by direct measurement of the binding process of the ligand with the native, unmodified protein using microcalorimetry, requiring large amounts of protein.
In this assay format, the displacement of a fluorescently-labeled reporter ligand bound to the receptor by an inhibitor can be measured by mixing protein, inhibitor and reporter ligand in a given buffer system.
Similar conditions were applied, but the protein concentration was fixed at 150 nM. […] The resulting sigmoidal data points on the logarithmic inhibitor concentration scale were used to fit a one-site inhibition model and obtain IC50 values.
After addition of the reagents, the microtiter plates were centrifuged at 800 rpm for 1 min at 23° C. and incubated for 6 h at room temperature. The fluorescence was measured on a Tecan […] F500 plate reader (Tecan Austria GmbH) with excitation filters at 485 nm and emission filters at 535 nm in black 384-well microtiter plates (Greiner Bio-One). The G-factor was set on 0.92154 and the gain to 80. The measured intensities were reduced by buffer values. The data were analyzed with Graphpad Prism 5 and fitted according to the four parameter variable slope model.

LecB [2] = molecular target: T1, LecB; experiment: biochemical; format: binding; settings: for kd: SPR, 1:1 binding model; for kon: pH 7.4, read-out: ka

T1 sequence (Q9HYN5 entry or part of it): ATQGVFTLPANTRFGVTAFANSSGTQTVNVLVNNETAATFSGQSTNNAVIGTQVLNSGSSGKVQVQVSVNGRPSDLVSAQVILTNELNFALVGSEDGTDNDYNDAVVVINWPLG

SMILES | rIC50 (MeMan) (LecB [1]) | IC50 (LecB [1]) [µM] | kd (LecB [2]) [s⁻¹] | kon (LecB [2]) [M⁻¹ s⁻¹]
CO[C@H]1O[C@H](CNS(=O)(=O)c2ccccc2)[C@@H](O)[C@H](O)[C@@H]1O [10a, Methyl 6-(phenylsulfonylamido)-6-deoxy-α-D-mannopyranoside] | 0.09 | – | – | –
CO[C@H]1O[C@H](CNS(=O)(=O)c2ccc(C)cc2)[C@@H](O)[C@H](O)[C@@H]1O [10b, Methyl 6-(p-tosylamido)-6-deoxy-α-D-mannopyranoside] | 0.31 | 68.2 | – | –
CO[C@H]1O[C@H](CNS(=O)(=O)c2ccc(Br)cc2)[C@@H](O)[C@H](O)[C@@H]1O [10c, Methyl 6-(4-bromophenylsulfonylamido)-6-deoxy-α-D-mannopyranoside] | 0.12 | 24.9 | – | –
CO[C@H]1O[C@H](CNS(=O)(=O)c2ccc([N+](=O)[O-])cc2)[C@@H](O)[C@H](O)[C@@H]1O [10d, Methyl 6-(4-nitrophenylsulfonylamido)-6-deoxy-α-D-mannopyranoside] | 0.21 | 47.4 | – | –
CO[C@H]1O[C@H](CNS(=O)(=O)c2c(C)cc(C)cc2C)[C@@H](O)[C@H](O)[C@@H]1O [10e, Methyl 6-(2,4,6-trimethylphenylsulfonylamido)-6-deoxy-α-D-mannopyranoside] | 0.015 | – | – | –
CO[C@H]1O[C@H](CNS(=O)(=O)c2c(C(C)C)cc(C(C)C)cc2C(C)C)[C@@H](O)[C@H](O)[C@@H]1O [10f, Methyl 6-(2,4,6-triisopropylphenylsulfonylamido)-6-deoxy-α-D-mannopyranoside] | 0.05 | 11.5 | – | –
COc1ccccc1/C=C/C(=O)NC[C@H]1O[C@H](OC)[C@@H](O)[C@@H](O)[C@@H]1O [11b, Methyl 6-(2-methoxycinnamido)-6-deoxy-α-D-mannopyranoside] | 0.21 | 45.8 | – | –
CO[C@H]1O[C@H](CNC(=O)/C=C/c2ccccc2[N+](=O)[O-])[C@@H](O)[C@H](O)[C@@H]1O [11c, Methyl 6-(2-nitrocinnamido)-6-deoxy-α-D-mannopyranoside] | 0.35 | 75.5 | – | –
CO[C@H]1O[C@H](CNC(=O)/C=C/c2ccccc2N)[C@@H](O)[C@H](O)[C@@H]1O [11d, Methyl 6-(2-aminocinnamido)-6-deoxy-α-D-mannopyranoside] | 0.24 | 52.6 | – | –
CO[C@H]1O[C@H](CNC(=O)/C=C/c2ccccc2C)[C@@H](O)[C@H](O)[C@@H]1O [11e, Methyl 6-(2-methylcinnamido)-6-deoxy-α-D-mannopyranoside] | 0.29 | 62.7 | – | –
CO[C@H]1O[C@H](CNC(=O)/C=C/c2cccc([N+](=O)[O-])c2)[C@@H](O)[C@H](O)[C@@H]1O [11f, Methyl 6-(3-nitrocinnamido)-6-deoxy-α-D-mannopyranoside] | 0.25 | 53.4 | – | –
CO[C@H]1O[C@H](CNC(=O)/C=C/c2cccc(N)c2)[C@@H](O)[C@H](O)[C@@H]1O [11g, Methyl 6-(3-aminocinnamido)-6-deoxy-α-D-mannopyranoside] | 0.29 | 63 | – | –
COc1ccc(/C=C/C(=O)NC[C@H]2O[C@H](OC)[C@@H](O)[C@@H](O)[C@@H]2O)cc1 [11h, Methyl 6-(4-methoxycinnamido)-6-deoxy-α-D-mannopyranoside] | 0.3 | 66 | – | –
CO[C@H]1O[C@H](CNC(=O)/C=C/c2ccc([N+](=O)[O-])cc2)[C@@H](O)[C@H](O)[C@@H]1O [11i, Methyl 6-(4-nitrocinnamido)-6-deoxy-α-D-mannopyranoside] | 0.49 | 106 | – | –
CO[C@H]1O[C@H](CNC(=O)/C=C/c2ccc(N)cc2)[C@@H](O)[C@H](O)[C@@H]1O [11j, Methyl 6-(4-aminocinnamido)-6-deoxy-α-D-mannopyranoside] | 0.24 | 53.2 | – | –
CO[C@H]1O[C@H](CNC(=O)/C=C/c2ccc(C)cc2)[C@@H](O)[C@H](O)[C@@H]1O [11k, Methyl 6-(4-methylcinnamido)-6-deoxy-α-D-mannopyranoside] | 0.16 | – | – | –
CO[C@H]1O[C@H](CNC(=O)/C=C/c2ccc(Cl)cc2)[C@@H](O)[C@H](O)[C@@H]1O [11l, Methyl 6-(4-chlorocinnamido)-6-deoxy-α-D-mannopyranoside] | 0.22 | 48.4 | – | –
CO[C@H]1O[C@H](CNC(=O)/C=C/c2ccc(Cl)cc2Cl)[C@@H](O)[C@H](O)[C@@H]1O [11m, Methyl 6-(2,4-dichlorocinnamido)-6-deoxy-α-D-mannopyranoside] | 0.32 | 71 | – | –
COc1ccc(/C=C/C(=O)NC[C@H]2O[C@H](OC)[C@@H](O)[C@@H](O)[C@@H]2O)cc1OC [11n, Methyl 6-(3,4-dimethoxycinnamido)-6-deoxy-α-D-mannopyranoside] | 0.13 | – | 0.0013 | –
CO[C@H]1O[C@H](CNC(=O)/C=C/c2ccc3c(c2)OCO3)[C@@H](O)[C@H](O)[C@@H]1O [11o, Methyl 6-(3,4-methylenedioxycinnamido)-6-deoxy-α-D-mannopyranoside] | 0.15 | 31.8 | – | –
CO[C@H]1O[C@H](CNC(=O)Cc2ccccc2)[C@@H](O)[C@H](O)[C@@H]1O [11q, Methyl 6-(phenylacetamido)-6-deoxy-α-D-mannopyranoside] | 0.93 | 205 | – | –
CO[C@H]1O[C@H](CNC(=O)c2ccc([N+](=O)[O-])cc2)[C@@H](O)[C@H](O)[C@@H]1O [11r, Methyl 6-(4-nitrobenzoylamido)-6-deoxy-α-D-mannopyranoside] | 0.94 | 206 | – | –
CO[C@H]1O[C@H](CNC(=O)c2ccccc2Cl)[C@@H](O)[C@H](O)[C@@H]1O [11s, Methyl 6-(2-chlorobenzoylamido)-6-deoxy-α-D-mannopyranoside] | 1.09 | 239 | – | –
CO[C@H]1O[C@H](CNC(=O)c2ccc3ccccc3c2)[C@@H](O)[C@H](O)[C@@H]1O [11t, Methyl 6-(2-naphtoylamido)-6-deoxy-α-D-mannopyranoside] | 0.54 | 118 | – | –
Cc1cc(C)c(S(=O)(=O)NC[C@H]2OC(C)[C@@H](O)C(O)C2O)c(C)c1 (stereo partly drawn) [13b, N-(6S-Methyl-3R,4R,5R-trihydroxy-tetrahydropyranosyl-2R-methyl)-2,4,6-trimethylphenyl sulfonamide] | – | – | 0.00041 | 1260
CC1OC(CNC(=O)/C=C/c2ccccc2)C(O)C(O)[C@@H]1O (stereo partly drawn) [compound 13, N-(6S-Methyl-3R,4R,5R-trihydroxy-tetrahydropyranosyl-2R-methyl)-cinnamide] | 0.1 | – | 0.00041 | 255
COC1O[C@H](CNS(=O)(=O)/C=C/c2ccccc2)C(O)C(O)[C@@H]1O (stereo partly drawn) [compound 14, Methyl 6-(trans-β-styrenesulfonylamido)-6-deoxy-α-D-mannopyranoside] | – | 79 | – | –
CC1O[C@H](CNS(=O)(=O)/C=C/c2ccccc2)C(O)C(O)[C@@H]1O (stereo partly drawn) [compound 15, N-(6S-Methyl-3R,4R,5R-trihydroxy-tetrahydropyranosyl-2R-methyl)-trans-β-styrene sulfonamide] | – | 12.7 | – | –
